Measurements reported in ChEMBL document CHEMBL1201862, “PubChem BioAssay data set” (2004).
Activity calls are given as the source filed them.

Experiments:
Cytochrome P450 2C9 = Cytochrome P450 2C9 (Homo sapiens, UniProt P11712)
Streptococcus = assay: Group A Streptococcus viability loss, dose response, counter-screen for streptokinase expression inhibitor project, luminescence, BacTiterGlo (AID 1915); assay type: functional, organism-based; settings: Streptococcus;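 note: potency for reduction of bacterial viability or growth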
[1] = tested on: Streptococcus sp. 'group A'; assay: growth inhibition of control SK(-) GAS strain, dose response, counter-screen for streptokinase expression inhibitor project, luminescence, kanamycin, BacTiterGlo, confirmation (AID 1900); assay type: functional, organism-based; settings: Streptococcus sp. 'group A'
[2] = cytotoxicity toward NIH3T3 fibroblasts, dose response, counter-screen, cell-based, ATP luminescence, mouse fibroblasts (AID 2010); assay type: functional;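 note: cells exposed to compound for about 90 hours before reading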
[3] = inhibitors of intracellular T. cruzi replication, confirmation, NIH3T3 host cells, beta-gal luminescence (AID 2044); assay type: functional, cell-based;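 note: intracellular parasites grown in NIH/3T3 mouse fibroblasts as host cells; luminescent beta-galactosidase reporter signal from transgenic T. cruzi replicating inside host cells; inhibitors lower the luminescence signal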
Cytochrome P450 3A4 = Cytochrome P450 3A4 (Homo sapiens, UniProt P08684);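 note: CYP3A4 tested as one member of a cytochrome P450 panel screen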
Cytochrome P450 3A4, sequence (P08684 whole entry): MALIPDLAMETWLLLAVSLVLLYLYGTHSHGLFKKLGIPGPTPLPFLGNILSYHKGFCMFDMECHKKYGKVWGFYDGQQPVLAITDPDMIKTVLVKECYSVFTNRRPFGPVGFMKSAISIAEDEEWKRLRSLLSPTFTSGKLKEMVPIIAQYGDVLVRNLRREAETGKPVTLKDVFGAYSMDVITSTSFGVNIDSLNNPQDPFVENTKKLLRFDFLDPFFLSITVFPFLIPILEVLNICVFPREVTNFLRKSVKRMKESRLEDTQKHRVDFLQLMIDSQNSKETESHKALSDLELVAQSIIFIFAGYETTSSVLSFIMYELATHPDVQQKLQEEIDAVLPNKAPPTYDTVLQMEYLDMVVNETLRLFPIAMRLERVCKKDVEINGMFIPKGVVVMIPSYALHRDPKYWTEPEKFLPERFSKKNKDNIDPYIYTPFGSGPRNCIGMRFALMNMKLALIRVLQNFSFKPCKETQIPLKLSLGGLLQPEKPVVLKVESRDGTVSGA

Cytochrome P450 2C19 = Cytochrome P450 2C19 (Homo sapiens, UniProt P33261); assay: Cytochrome panel assay with activity outcomes. Panel member name: p450-cyp2c19 Compounds with AC50 equal or less than 10 uM are considered active; assay type: functional
Cytochrome P450 2C19, sequence (P33261 whole entry): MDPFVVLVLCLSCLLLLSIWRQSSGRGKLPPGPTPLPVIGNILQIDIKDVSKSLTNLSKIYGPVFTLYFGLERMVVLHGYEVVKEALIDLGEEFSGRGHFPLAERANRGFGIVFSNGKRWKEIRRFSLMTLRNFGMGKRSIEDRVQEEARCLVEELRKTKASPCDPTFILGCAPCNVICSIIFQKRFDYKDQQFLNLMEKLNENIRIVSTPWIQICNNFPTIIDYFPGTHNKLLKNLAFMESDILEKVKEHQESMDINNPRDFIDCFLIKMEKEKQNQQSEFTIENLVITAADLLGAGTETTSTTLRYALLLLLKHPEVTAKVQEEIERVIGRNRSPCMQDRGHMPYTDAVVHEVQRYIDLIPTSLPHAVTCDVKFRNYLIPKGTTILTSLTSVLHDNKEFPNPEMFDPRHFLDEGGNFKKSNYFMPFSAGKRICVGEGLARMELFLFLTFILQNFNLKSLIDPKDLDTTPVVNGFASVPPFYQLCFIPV

[4] = biological target: T1, Rac GTPase-activating protein 1 (Homo sapiens, UniProt Q9H0H5); assay: MgcRacGAP GTPase-activating activity inhibitors, confirmation, biochemical, ADP Hunter fluorescence, primary and confirmatory (AID 624330); assay type: functional
T1 sequence (Q9H0H5 whole entry): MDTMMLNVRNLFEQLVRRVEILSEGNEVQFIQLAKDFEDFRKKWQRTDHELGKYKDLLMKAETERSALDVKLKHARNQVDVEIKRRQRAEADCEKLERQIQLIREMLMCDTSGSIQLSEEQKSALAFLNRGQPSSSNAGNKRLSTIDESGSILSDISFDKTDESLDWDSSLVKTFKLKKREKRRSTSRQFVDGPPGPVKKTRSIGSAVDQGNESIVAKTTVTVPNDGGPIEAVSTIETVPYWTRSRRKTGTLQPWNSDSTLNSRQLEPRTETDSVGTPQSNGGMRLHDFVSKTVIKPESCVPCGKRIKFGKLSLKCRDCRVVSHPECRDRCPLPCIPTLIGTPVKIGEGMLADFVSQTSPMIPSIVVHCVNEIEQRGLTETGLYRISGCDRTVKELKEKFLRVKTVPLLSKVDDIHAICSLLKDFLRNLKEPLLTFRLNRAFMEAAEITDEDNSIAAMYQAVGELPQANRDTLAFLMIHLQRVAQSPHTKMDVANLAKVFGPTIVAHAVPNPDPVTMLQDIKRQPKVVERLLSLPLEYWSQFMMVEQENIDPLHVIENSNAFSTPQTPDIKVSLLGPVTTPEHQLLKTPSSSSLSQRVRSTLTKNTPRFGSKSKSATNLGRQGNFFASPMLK

H4 = assay: Luminescence Cell-Based Dose Response HTS to Identify Activators of 5'UTR Stem-Loop Driven Prion Protein mRNA Translation in H4 Neuroglioblastoma Cells. [Related pubchem assays: 1829 (Project Summary), 1814 (Primary HTS)]; assay type: functional; settings: Homo sapiens
[5] = Luminescence Cell-Based Dose Response HTS to Identify Activators of Luciferase Translation or Activity in H4 […] Cells. [Related pubchem assays: 1829 (Project Summary), 1814 (Primary HTS)]; assay type: functional

Cytochrome P450 2C9, sequence (P11712 whole entry): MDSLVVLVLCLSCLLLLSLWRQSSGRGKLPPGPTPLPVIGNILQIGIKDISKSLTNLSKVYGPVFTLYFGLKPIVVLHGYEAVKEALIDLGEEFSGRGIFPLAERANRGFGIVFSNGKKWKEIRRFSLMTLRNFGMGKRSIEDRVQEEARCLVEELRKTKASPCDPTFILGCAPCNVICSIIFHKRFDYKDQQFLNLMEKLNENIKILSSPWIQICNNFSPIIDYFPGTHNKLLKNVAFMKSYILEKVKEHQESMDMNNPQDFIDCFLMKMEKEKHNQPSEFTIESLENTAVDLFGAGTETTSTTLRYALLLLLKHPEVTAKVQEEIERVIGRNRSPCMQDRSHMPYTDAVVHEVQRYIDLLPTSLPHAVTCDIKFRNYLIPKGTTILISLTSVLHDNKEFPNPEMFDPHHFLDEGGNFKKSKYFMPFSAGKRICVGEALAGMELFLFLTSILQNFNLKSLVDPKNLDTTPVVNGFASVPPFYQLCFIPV

Structure (SMILES): CCCCC1CC(/C(C)=N/NC(N)=O)OC1=O (stereo unspecified)
- AC50 (Cytochrome P450 2C9): 20 µM (inconclusive)

Structure (SMILES): Cc1ccc2[nH]c(SCC(=O)c3ccc(Cl)s3)nc2c1
- EC50 (Streptococcus): > 150 µM (not active)
- EC50 [1]: > 150 µM (not active)

Structure (SMILES): CCC1Oc2ccc(C)cc2N(CC(=O)N(Cc2cccnc2)Cc2cccc(F)c2)C1=O (stereo unspecified)
- EC50 [2]: > 60 µM (not active)
- EC50 [3]: 0.145 µM (active)

Structure (SMILES): Cc1ccc(N=Nc2c(=O)[nH]n3c(C)cc(C)nc23)cc1
- AC50 (Cytochrome P450 3A4): 25.1 µM (inconclusive)
- AC50 (Cytochrome P450 2C19; read-out: AC50): 39.8 µM (inconclusive)

Structure (SMILES): Cc1ccccc1-c1ccc2ncnc(N(C)C)c2c1
- AC50 (Cytochrome P450 2C9): 0.398 µM (inconclusive)

Structure (SMILES): c1ccc(Cn2c3ccccc3c3nnc(SCCN4CCCCC4)nc32)cc1
- EC50 [2]: > 60 µM (not active)
- EC50 [3]: 0.489 µM (active)

Structure (SMILES): O=C(c1ccc(Cl)c(S(=O)(=O)N2CCCCCC2)c1)N1CCN(c2ccc(O)cc2)CC1
- IC50 [4]: 33.7 µM (active)

Structure (SMILES): O=C(CSc1nc(C2CC2)nc2ccccc12)N1c2ccccc2Sc2ccccc21
- EC50 [2]: > 60 µM (not active)
- EC50 [3]: 4.43 µM (active)

Structure (SMILES): CCn1nnnc1SCC(=O)c1ccc2c(c1)OCCO2
- AC50 (Cytochrome P450 2C9): 17.8 µM (inconclusive)

Structure (SMILES): CCOc1cc(/C=N/NC(=O)c2cc(C3CC3)[nH]n2)ccc1O
- IC50 [4]: 54.9 µM (active)

Structure (SMILES): CC(=O)NCCNc1ncnc2ccc(-c3cccc(NS(C)(=O)=O)c3)cc12
- AC50 (Cytochrome P450 3A4): 7.94 µM (inconclusive)

Structure (SMILES): COc1ccc(N2CCN(C(CNS(=O)(=O)c3cccs3)c3cccnc3)CC2)cc1 (stereo unspecified)
- IC50 [4]: 120 µM (active)

Structure (SMILES): COc1ccc(Cc2nc3cc(S(=O)(=O)N4CCOCC4)ccc3[nH]2)cc1OC
- AC50 (Cytochrome P450 2C19; read-out: AC50): 25.1 µM (inconclusive)

Structure (SMILES): Cn1cccc1/C=N/N1CCN(Cc2ccccc2Cl)CC1
- IC50 [4]: 82.1 µM (active)

Structure (SMILES): CCn1c(SCc2ccc(C(=O)Nc3nccs3)cc2)nnc1-c1ccc(NC(C)=O)cc1
- AC50 (Cytochrome P450 3A4): 1.12 µM (inconclusive)

Structure (SMILES): COc1ccccc1CN1CCN(Cc2nc(-c3cccs3)no2)CC1
- EC50 [2]: > 60 µM (not active)
- EC50 [3]: 0.841 µM (active)

Structure (SMILES): Cn1c(-c2nnn(-c3ccc(F)cc3)n2)cc2ccccc21
- EC50 (H4): 36.6 µM (active)

Structure (SMILES): CCN(CC)CCCNCC(=O)Nc1cc(C)on1
- IC50 [4]: 99.4 µM (active)

Structure (SMILES): O=c1c(-c2cccc(F)c2)nc2cncnc2n1-c1ccccc1
- AC50 (Cytochrome P450 3A4): 20 µM (inconclusive)

Structure (SMILES): CN[C@@H](c1ccncc1)[C@@H](NC)c1ccncc1
- AC50 (Cytochrome P450 2C19; read-out: AC50): 3.16 µM (inconclusive)

Structure (SMILES): Cc1cc(/C=C(\C#N)C(=O)NC2CC2)c(C)[nH]1
- EC50 [5]: 0.857 µM (active)
- EC50 (H4): > 120 µM (not active)

Structure (SMILES): CC1(C)C([N+](=O)[O-])C(c2ccc(Cl)cc2)NC(c2ccc(Cl)cc2)C1[N+](=O)[O-] (stereo unspecified)
- EC50 [2]: > 60 µM (inconclusive)
- EC50 [3]: 2 µM (active)

Structure (SMILES): CCCC[C@@H]1CN2[C@H](c3ccc(Br)cc3)[C@@H](C)CC[C@H]2C(=O)O1
- AC50 (Cytochrome P450 3A4): 5.01 µM (inconclusive)

Structure (SMILES): Cc1ccc2nc(N(CCN(C)C)C(=O)c3ccc4c(c3)OCCO4)sc2c1
- EC50 [2]: > 60 µM (not active)
- EC50 [3]: 0.104 µM (active)

Structure (SMILES): COc1ccc(/C=C/C(=O)N2c3ccccc3Sc3ccc(C(F)(F)F)cc32)cc1
- EC50 [2]: > 60 µM (not active)
- EC50 [3]: 2.8 µM (active)

Structure (SMILES): CCOc1ccc(C(=O)C2=C(O)C(=O)N(CCOCCO)C2c2ccccc2OC)cc1 (stereo unspecified)
- AC50 (Cytochrome P450 2C19; read-out: AC50): 25.1 µM (inconclusive)

Structure (SMILES): Cc1ccc(NC(=O)CN2C(=O)S/C(=C\c3cccn3C)C2=O)cc1
- AC50 (Cytochrome P450 3A4): 7.08 µM (inconclusive)

Structure (SMILES): Cc1ccc(S(=O)(=O)c2nnn3c2nc(NC2CCN(Cc4ccccc4)CC2)c2ccccc23)cc1C
- EC50 [2]: > 30 µM (not active)
- EC50 [3]: 1.24 µM (active)

Structure (SMILES): Cn1c(=O)c2c3c(sc2n2cnnc12)CCC3
- AC50 (Cytochrome P450 2C19): inconclusive

Structure (SMILES): Nc1c(C(=O)Nc2ccccc2)c2nc3ccccc3nc2n1-c1ccc(O)cc1
- EC50 [2]: 15.9 µM (active)
- EC50 [3]: 2.07 µM (active)

Structure (SMILES): Cc1cc(N2C(=O)C(O)=C(C(=O)c3cccs3)C2c2cccc(O)c2)no1 (stereo unspecified)
- AC50 (Cytochrome P450 2C19; read-out: AC50): 31.6 µM (inconclusive)

Structure (SMILES): COc1ccc(O/C(=N\S(=O)(=O)c2ccccc2)c2ccccc2)cc1
- IC50 [4]: 45.5 µM (active)

Structure (SMILES): COC(=O)Cn1cc(/C=N/NC(=O)c2ccc(C#N)cc2F)c2ccccc21
- AC50 (Cytochrome P450 2C9): 8.91 µM (inconclusive)
- AC50 (Cytochrome P450 2C19; read-out: AC50): 22.4 µM (inconclusive)
